Source: patent publication US9908919B2, “Cyclic apelin derivatives for the treatment of heart failure” (priority 2013, dated 2018)
Where a SMILES comes first, the peptide text is derived from it.

Assays:
[1] = Plasma stability assay (LC-MS); type: in vitro ADME; settings: male, Sprague-Dawley; Table 3; heparinized rat plasma, 37° C., LC-MS percent remaining; read-out: Plasma stability t½
Description: Working solution: 1 mg/mL test article is prepared in Milli-Q water
Extraction solution: Methanol:Acetonitrile:Water (1:1:1) with 0.1% Formic Acid and 400 ng/mL Glyburide.
Plasma: Male Sprague-Dawley rat plasma (with sodium heparin), purchased from Bioreclamation LLC (Liverpool, N.Y.).
Test article was prepared in one of the following biological matrices: heparinized rat plasma, heparinized rat whole blood or lung homogenate. The plasma and whole blood sample was prepared at 5000 ng/mL by adding 5 uL of 1 mg/mL Working solution to 995 uL of rat plasma or whole blood. Lung homogenate samples were prepared by diluting lung homogenate to 1 mg/ml protein concentration with phosphate buffered saline (PBS), followed by addition of 5 uL Working solution to 995 uL diluted lung homogenate. The samples were incubated at 37° C. with gentle shaking (65˜75 rpm) in a water bath incubator. At times 0 min, 5 min, 15 min, 30 min, 60 min, 120 and 240 min, 25 uL aliquots of incubation samples were transferred to 96-well plate and immediately protein precipitated using 150 uL of Extraction solution. After completion of incubation experiment, the sample plate was centrifuged at 4000 rpm at 4° C. for 10 minutes. Afterwards, a pipetting device (Tecan Temo) was used to transfer the supernatants to another plate and add 50 uL of water to all samples. The plate was vortexed prior to LC-MS analysis. […]

[2] = rat
Description: (§1) The calcium flux protocol described above was followed, with the following changes. The peptides were also incubated with 5% rat plasma (Bioreclamation # [sequence]-M, Na Heparin-treated). Readings were taken at time points t0 and t24 hrs, after incubation in a 37° C. tissue culture incubator. Peptide plasma half-life in minutes was estimated by calculating the following: • 1) LN((EC50 at t0)/(EC50 at t24 hrs)), • 2) Calculate slope of value above and • 3) t112=0.693/(slope^2).

[3] = in vitro; settings: rat, plasma
Description: as §1

half-life at 5000 ng/mL [1]: 2.42 h | Surrogate Activity based Plasma stability t½ [2]: >16.67 h | half-life [3]: > 16.7 h
SMILES: CCCC[C@@H]1NC(=O)[C@@H]2CCCN2C(=O)CNC(=O)[C@H](CCCCN)NC(=O)[C@H](Cc2c[nH]cn2)NC(=O)[C@@H](NC(=O)[C@H](CC(C)C)NC(=O)[C@H](CCCNC(=N)N)NC(=O)[C@@H]2CCCN2C(=O)[C@H](CCCNC(=N)N)NC(=O)[C@@H]2CCC(=O)N2)CSSC[C@@H](C(=O)O)NC(=O)[C@@H]2CCCN2C1=O [Example 8, pE-R-P-R-L-C*-H-K-G-P-Nle-P-C*-OH] (HELM PEPTIDE1{[Glp].R.P.R.L.C.H.K.G.P.[Nle].P.C}$PEPTIDE1,PEPTIDE1,6:R3-13:R3$$$V2.0)
